In US20230266321A1, “LIVE CELL ENGAGEMENT ASSAY” (Icahn School of Medicine at Mount Sinai, priority 2020, published 2023):

Legend:
BRAF-MEK1 complex = BRAF-MEK1 complex (Homo sapiens, UniProt Q02750); settings: HCT116 cells, 200 nM, 1 hour
MEK-NL = biological target: T1, MEK-NL (Homo sapiens, UniProt Q02750); assay: Tracer buildup curves on MEK-NLuc (NanoBRET); assay type: cell-based; settings: HEK293T cells, 2 hrs at 37° C.; read-out: binding affinity to MEK-NL (tracer buildup curves)
T1 construct: expressed in transfected cells; host or cells: HEK293T
Experimental: (v) Tram-bo and PD-bo buildup curves measure on MEK-NLuc. A human C-terminal NanoLuc fusion of MEK was transfected as mentioned above at a concentration of […] in combination with […] of carrier DNA. […] A 20x solution was added to each well to give final concentrations of 2, 1, 0.5, 0.1, 0.05, 0.01, 0.001, 0.0001 mM for PD-bo, and 1, 0.1, 0.05, 0.01, 0.005, 0.001, 0.0001, 0.00001 for Tram-bo. […] All data were analyzed using Prism 8 (GraphPad)

[1] = system: luciferase-tagged human KSR1, KSR2, ARAF, BRAF, and CRAF/RAF1; assay: RAF family tram-bo buildup curves (NanoBRET); assay type: cell-based; settings: BRET buildup curves with increasing tracer concentrations
Experimental: Human c-terminal NanoLuc fusions versions of ARAF (Uniprot P10398), BRAF (UniProt P15056), CRAF (Uniprot P04049), KSR1 (Uniprot Q8IVT5), and KSR2 (Uniprot Q6VAB6) were transfected as mentioned above at a concentration of 0.1 µg/mL in combination with 9.9 µg/mL of carrier DNA. All RAF constructs from Promega. […] A 20x tram-bo solution was added to each well to give final concentrations of 4, 1, 0.5, 0.1, 0.05, 0.01, 0.001, 0.0001 µM. […] All data were analyzed using Prism 8 (GraphPad).

KSR1-MEK1 complex = KSR1-MEK1 complex (UniProt Q02750+Q61097, P775N); settings: HCT116 cells, 200 nM, 1 hour
MEK1-luc = MEK1-luc (Homo sapiens, UniProt Q02750); assay: NanoBRET washout / intracellular residence time on MEK1-luc; settings: cells pre-treated with MEKi, washed, 1 µM tram-bo added
[2] = biological target: T2, mouse KSR1-luc (KSR-bound MEK) (UniProt Q02750+Q61097); assay: NanoBRET in-cell steady-state competition with tram-bo on KSR1-luc; assay type: cell-based
T2 construct: expressed in transfected cells; host or cells: HEK293T

KRAS-G12S A549 cells = assay: Long-term clonogenic assay; assay type: cell-based, human; settings: 10 nM final concentration, in comparison to amide-linker compounds (eg. 1, 3)
Experimental: Cells were plated at a density of 6,000 cells per well in 6-well plates in 3 mL of culture medium. Twenty-four hours after seeding, compounds dissolved in DMSO or DMSO-only vehicles were added directly to the culture media at a 1:1000 dilution. Following 10 days of culture, cells were washed 2x in PBS, fixed in ice-cold methanol for 10 minutes, stained with crystal-violet at room temperature for 10 minutes, and subsequently washed three times in water. Plates were allowed to dry overnight before imagining with an Epson V600 scanner.

HCT116 cells = assay: Cell proliferation/viability assay under low-adherence conditions; assay type: cell-based, human
Experimental: A375, A549, HCT116, and SKMEL-239 cells were plated in Corning Costar Ultra-Low Attachment 96-well plates (Reference number 3434). After 24 hours of incubation at 37° C., cells were treated with inhibitors (0.1% DMSO in final volume). Cells were grown for five days, and resazurin sodium salt was added at a final concentration of 0.01 µg/µL. Fluorescence was measured using a Molecular Devices SpectraMax M5 spectrophotometer after a 4-24-hour incubation with resazurin solution. Technical triplicate values were averaged for each experiment, and biological replicate values are represented as average +/- standard deviation. For each cell line, logEC50 values of inhibitors were statistically compared using the extra sum-of-squares F test in GraphPad Prism 8 (FIGS. 57, 58, 67, 68, 69).

[3] = system: phosphorylated ERK1/2 (T202/Y204); assay: Immunoblot of RAS/ERK pathway inhibition; assay type: cell-based, human; settings: 1 hour, increasing concentrations, relative to trametinib
Experimental: Cells were plated at a density of 300,000 cells per well in 6-well plates in 2 mL of culture medium. 24 hours after seeding, cells were treated with compounds or DMSO at a 1:1000 dilution (0.1 % DMSO in final volume). […] Samples were normalized to a protein content of 5 µg/µL in 100 µL total volume, and 20 µL of 6x SDS was added. […] Transfers were confirmed using ponceau red, washed, and then blocked for 1 hour with 5% BSA TBS-T, prior to overnight incubation with primary antibodies including phospho-ERK1/2 T202/Y204 and total ERK1/2 (Cell Signaling Technologies (CST) 9101S and 4695S, respectively) in 5% BSA TBS-T. The next day, blots were washed extensively, and incubated in secondary antibody (Anti-Rabbit IgG HRP-Linked CST 7074S).

[4] = system: MEK1, MEK2 and upstream kinases BRAF, CRAF; assay: In vitro kinase profiling, substrate phosphorylation assays; assay type: biochemical; settings: incl. BRAF and CRAF phosphorylation of MEK1 as substrate
[5] = system: MEK1 and MEK2 (kinase panel incl. BRAF, CRAF); assay: In vitro kinase profiling, direct binding assays; settings: 1 µM
[6] = HCT116, low-adherence conditions

Compound: CNS(=O)(=O)Nc1nccc(Cc2c(C)c3ccc(Oc4ncccn4)cc3oc2=O)c1F [CH5126766, reference compound]
- effect on BRAF pulled down via endogenous MEK1 (co-IP) (BRAF-MEK1 complex): enhances interactions between endogenous BRAF and MEK1

Compound: Cc1c(=O)n(C)c(Nc2ccc(I)cc2F)c2c(=O)n(C3CC3)c(=O)n(-c3cccc(NC(=O)CCOCCOCCNC(=O)CCC4=[N+]5C(=Cc6ccc(-c7ccc[nH]7)n6[B-]5(F)F)C=C4)c3)c12 [Tram-bo]
- EC50 (MEK-NL): 4.7 nM
- tighter binding on KSR1-luc and KSR2-luc relative to ARAF-luc, BRAF-luc, and CRAF-luc [1]: ~ 10 fold

Compound: O=C(c1ccc(F)c(F)c1Nc1ccc(I)cc1F)N1CC(O)([C@@H]2CCCCN2)C1 [cobimetinib]
- effect on complex stability of K1 (KSR1 P775N) and B2 (BRAF R662A) mutants with MEK (co-IP) (KSR1-MEK1 complex): did not alter complex stability
- dissociation kinetics after washout on MEK1-luc (MEK1-luc): dissociated more readily
- IC50 ([2]; HEK293T cells, 1 µM tram-bo tracer, equilibrium binding, mean ± s.e.m., read-out: steady-state IC50 against KSR1-luc): 5.1 ± 0.7 nM
- difference in potency between KSR1-luc and MEK1-luc ([2]; IC50 MEK1-luc vs KSR1-luc): ~20 fold

Compound: Cc1c(=O)n(C)c(Nc2ccc(I)cc2F)c2c(=O)n(C3CC3)c(=O)n(-c3cccc(NS(=O)(=O)NC4CC4)c3)c12 [compound 5]
- growth inhibition in long-term clonogenic assay (KRAS-G12S A549 cells): enhanced and durable growth inhibition

Compound: CCN(C)S(=O)(=O)Nc1cccc(-n2c(=O)n(C3CC3)c(=O)c3c(Nc4ccc(I)cc4F)n(C)c(=O)c(C)c32)c1 [compound 6]
- growth inhibition in long-term clonogenic assay (KRAS-G12S A549 cells): enhanced and durable growth inhibition

Compound: CNS(=O)(=O)Nc1cccc(-n2c(=O)n(C3CC3)c(=O)c3c(Nc4ccc(I)cc4F)n(C)c(=O)c(C)c32)c1 [trametiglue]
- effect on BRAF pulled down via endogenous MEK1 (co-IP) (BRAF-MEK1 complex): markedly enhanced capture of BRAF
- improvement in potency relative to CH5126766 (HCT116 cells; [6]): ~200 fold
- improvement in potency relative to trametinib (HCT116 cells; [6]): approximately 7 fold
- IC50 (HCT116 cells; low-adherence conditions, five days, resazurin, read-out: IC50 in the cell line HCT116): 0.07 ± 0.04 nM
- inhibition of RAS-MAPK signaling as measured by pERK [3]: higher potency inhibitor of RAS-MAPK signaling
- inhibition in substrate phosphorylation assays [4]: not only inhibited MEK1 and MEK2, but also upstream kinases
- direct interaction with isolated BRAF or CRAF in binding experiments [5]: no direct interactions towards isolated BRAF or CRAF
- selectivity in direct binding assays [5]: strong selectivity towards MEK1 and MEK2
- growth inhibition in long-term clonogenic assay (KRAS-G12S A549 cells): enhanced and durable growth inhibition
- potency and off-rate kinetics in cellular target engagement assays ([2]; KSR-luc or MEK-luc reporters, residence time at 6.25 nM): retained similar potency and off-rate kinetics as trametinib
